Experimental data from PubChem BioAssay AID1259407 (Chemical Carcinogenesis Research Information System (CCRIS), 2018).
Active and inactive are the calls of the source. No rule for the calls is given here.

Test system: CCRIS mutagenicity, Ames/micronucleus/aberration tests
Experiment: CCRIS mutagenicity studies
[1] = Test System: AMES SALMONELLA TYPHIMURIUM, Strain/Indicator: TA98, Metabolic Activation: NONE, Method: PREINCUBATION
[2] = Test System: AMES SALMONELLA TYPHIMURIUM, Strain/Indicator: TA100, Metabolic Activation: NONE, Method: PREINCUBATION
[3] = Test System: AMES SALMONELLA TYPHIMURIUM, Strain/Indicator: TA1535, Metabolic Activation: NONE, Method: PREINCUBATION
[4] = Test System: AMES SALMONELLA TYPHIMURIUM, Strain/Indicator: TA1537, Metabolic Activation: NONE, Method: PREINCUBATION

For `CC(C)NCC(O)c1ccc(O)c(O)c1` (stereo unspecified), the mutagenic call (End Point: IN VITRO CHROMOSOMAL ABERRATIONS, Test System: CHINESE HAMSTER OVARY CELLS, Metabolic Activation: NONE) was “inactive; negative”, the mutagenic call (End Point: IN VITRO CHROMOSOMAL ABERRATIONS, Test System: CHINESE HAMSTER OVARY CELLS, Metabolic Activation: RAT, LIVER, S-9, AROCLOR 1254) was “active; positive” and the mutagenic call (Test System: AMES SALMONELLA TYPHIMURIUM, Strain/Indicator: TA98, Metabolic Activation: HAMSTER, LIVER, S-9, AROCLOR 1254, Method: PREINCUBATION) was “inactive; negative”. The mutagenic call [1] was “inactive; negative”, the mutagenic call (Test System: AMES SALMONELLA TYPHIMURIUM, Strain/Indicator: TA98, Metabolic Activation: RAT, LIVER, S-9, AROCLOR 1254, Method: PREINCUBATION) was “inactive; negative” and the mutagenic call (Test System: AMES SALMONELLA TYPHIMURIUM, Strain/Indicator: TA100, Metabolic Activation: HAMSTER, LIVER, S-9, AROCLOR 1254, Method: PREINCUBATION) was “inactive; negative”. The mutagenic call [2] was “inactive; negative”, the mutagenic call (Test System: AMES SALMONELLA TYPHIMURIUM, Strain/Indicator: TA100, Metabolic Activation: RAT, LIVER, S-9, AROCLOR 1254, Method: PREINCUBATION) was “inactive; negative” and the mutagenic call (Test System: AMES SALMONELLA TYPHIMURIUM, Strain/Indicator: TA1535, Metabolic Activation: HAMSTER, LIVER, S-9, AROCLOR 1254, Method: PREINCUBATION) was “inactive; negative”. For the same compound, the mutagenic call [3] was “inactive; negative”, the mutagenic call (Test System: AMES SALMONELLA TYPHIMURIUM, Strain/Indicator: TA1535, Metabolic Activation: RAT, LIVER, S-9, AROCLOR 1254, Method: PREINCUBATION) was “inactive; negative” and the mutagenic call (Test System: AMES SALMONELLA TYPHIMURIUM, Strain/Indicator: TA1537, Metabolic Activation: HAMSTER, LIVER, S-9, AROCLOR 1254, Method: PREINCUBATION) was “inactive; negative”. The mutagenic call [4] was “inactive; negative” and the mutagenic call (Test System: AMES SALMONELLA TYPHIMURIUM, Strain/Indicator: TA1537, Metabolic Activation: RAT, LIVER, S-9, AROCLOR 1254, Method: PREINCUBATION) was “inactive; negative”.
With `O=C1O[C@H]([C@@H](O)CO)C(O)=C1O` the mutagenic call (End Point: IN VITRO CHROMOSOMAL ABERRATIONS, Test System: CHO CELLS, Metabolic Activation: RAT, LIVER, S-9, AROCLOR 1254) was “inactive; negative”, the mutagenic call (End Point: IN VITRO MICRONUCLEUS, Test System: CHINESE HAMSTER OVARY (CHO-K5), Metabolic Activation: NONE) was “active; positive; no statistical analysis was performed” and the mutagenic call (End Point: In vitro chromosomal aberrations, Test System: Chinese hamster lung CHL/IU cells, Metabolic Activation: None) was “inactive; negative. toxicicity at highest dose”. For the same compound, the mutagenic call (End Point: In vitro chromosomal aberrations, Test System: Chinese hamster ovary (CHO) cells, Metabolic Activation: None) was “inactive; negative; vitamin c, alone or in combination with glutamine, reduced effect of d”, the mutagenic call (End Point: In vitro chromosomal aberrations, Test System: Human peripheral blood lymphocytes, Metabolic Activation: None) was “active; positive (structural changes); response at highest dose only” and the mutagenic call (End Point: In vivo chromosomal aberrations, Test System: Bone marrow cells, Species: Rat, Strain/Sex: Wistar/Male and female, Route: Oral) was “inactive; negative; vitamin c, alone or with glutamine, reduced effect of doxorubicin”. The mutagenic call (Test System: AMES SALMONELLA TYPHIMURIUM, Strain/Indicator: TA97, Metabolic Activation: HAMSTER, LIVER, S-9, AROCLOR 1254 (10 OR 30%), Method: PREINCUBATION) was “inactive; negative”, the mutagenic call (Test System: AMES SALMONELLA TYPHIMURIUM, Strain/Indicator: TA97, Metabolic Activation: NONE, Method: PREINCUBATION) was “inactive; negative” and the mutagenic call (Test System: AMES SALMONELLA TYPHIMURIUM, Strain/Indicator: TA97, Metabolic Activation: NONE, Method: STANDARD PLATE) was “inactive; negative”. For the same compound, the mutagenic call (Test System: AMES SALMONELLA TYPHIMURIUM, Strain/Indicator: TA97, Metabolic Activation: RAT, LIVER, S-9, AROCLOR 1254 (10 OR 30%), Method: PREINCUBATION) was “inactive; negative”, the mutagenic call (Test System: AMES SALMONELLA TYPHIMURIUM, Strain/Indicator: TA97, Metabolic Activation: RAT, LIVER, S-9, AROCLOR 1254, Method: STANDARD PLATE) was “inactive; negative” and the mutagenic call (Test System: AMES SALMONELLA TYPHIMURIUM, Strain/Indicator: TA98, Metabolic Activation: HAMSTER, LIVER, S-9, AROCLOR 1254 (10 OR 30%), Method: PREINCUBATION) was “inactive; negative”. For the same compound, the mutagenic call [1] was “inactive; negative”, the mutagenic call (Test System: AMES SALMONELLA TYPHIMURIUM, Strain/Indicator: TA98, Metabolic Activation: NONE, Method: STANDARD PLATE) was “inactive; negative” and the mutagenic call (Test System: AMES SALMONELLA TYPHIMURIUM, Strain/Indicator: TA98, Metabolic Activation: RAT, LIVER, S-9, AROCLOR 1254 (10 OR 30%), Method: PREINCUBATION) was “inactive; negative”. For the same compound, the mutagenic call (Test System: AMES SALMONELLA TYPHIMURIUM, Strain/Indicator: TA98, Metabolic Activation: RAT, LIVER, S-9, AROCLOR 1254, Method: STANDARD PLATE) was “inactive; negative”, the mutagenic call (Test System: AMES SALMONELLA TYPHIMURIUM, Strain/Indicator: TA100, Metabolic Activation: HAMSTER, LIVER, S-9, AROCLOR 1254 (10 OR 30%), Method: PREINCUBATION) was “inactive; negative” and the mutagenic call [2] was “inactive; negative”. The mutagenic call (Test System: AMES SALMONELLA TYPHIMURIUM, Strain/Indicator: TA100, Metabolic Activation: NONE, Method: STANDARD PLATE) was “inactive; negative”, the mutagenic call (Test System: AMES SALMONELLA TYPHIMURIUM, Strain/Indicator: TA100, Metabolic Activation: RAT, LIVER, S-9, AROCLOR 1254 (10 OR 30%), Method: PREINCUBATION) was “inactive; negative” and the mutagenic call (Test System: AMES SALMONELLA TYPHIMURIUM, Strain/Indicator: TA100, Metabolic Activation: RAT, LIVER, S-9, AROCLOR 1254, Method: STANDARD PLATE) was “inactive; negative”. For the same compound, the mutagenic call (Test System: AMES SALMONELLA TYPHIMURIUM, Strain/Indicator: TA102, Metabolic Activation: NONE, Method: STANDARD PLATE) was “inactive; negative”, the mutagenic call (Test System: AMES SALMONELLA TYPHIMURIUM, Strain/Indicator: TA104, Metabolic Activation: NONE, Method: STANDARD PLATE) was “inactive; negative” and the mutagenic call (Test System: AMES SALMONELLA TYPHIMURIUM, Strain/Indicator: TA1535, Metabolic Activation: HAMSTER, LIVER, S-9, AROCLOR 1254 (10 OR 30%), Method: PREINCUBATION) was “inactive; negative”. For the same compound, the mutagenic call [3] was “inactive; negative”, the mutagenic call (Test System: AMES SALMONELLA TYPHIMURIUM, Strain/Indicator: TA1535, Metabolic Activation: RAT, LIVER, S-9, AROCLOR 1254 (10 OR 30%), Method: PREINCUBATION) was “inactive; negative” and the mutagenic call (Test System: AMES SALMONELLA TYPHIMURIUM, Strain/Indicator: TA1537, Metabolic Activation: HAMSTER, LIVER, S-9, AROCLOR 1254 (10 OR 30%), Method: PREINCUBATION) was “inactive; negative”. The mutagenic call [4] was “inactive; negative”, the mutagenic call (Test System: AMES SALMONELLA TYPHIMURIUM, Strain/Indicator: TA1537, Metabolic Activation: RAT, LIVER, S-9, AROCLOR 1254 (10 OR 30%), Method: PREINCUBATION) was “inactive; negative” and the mutagenic call (Test System: E. coli, Strain/Indicator: YG5190 (WP2 uvrA/pKM101 deficient in mutM gene), Metabolic Activation: None, Method: Preincubation) was “inactive; negative. addition of sodium nitrite (100 ug/plate) increased mutagenic response”. For the same compound, the mutagenic call (Test System: E. coli, Strain/Indicator: YG5190 (WP2 uvrA/pKM101 deficient in mutM gene), Metabolic Activation: S9, Method: Preincubation) was “inactive; negative. addition of sodium nitrite (100 ug/plate) increased mutagenic response” and the mutagenic call (Test System: HCT116 COLON CANCER CELLS, Strain/Indicator: HCT116 CELLS (HPRT)/6-THIOGUANINE, Metabolic Activation: NONE, Method: STANDARD PLATE) was “inactive; negative”.
